Assay results reported in patent US10501481B2, “Heterocyclic compounds and their use in preventing or treating bacterial infections” (priority 2015, dated 2019).
Values after ≈ are worked out from the molar mass of the structure shown. Where two headings read alike, the source gives them in different places.

Columns and labels:
[1] = tested on: K. pneumoniae 200047 (TEM-1, SHV-32, CTX-M-15, OXA-1); assay: MIC broth microdilution, alone and synergy with ceftazidime; conditions: Klebsiella pneumoniae, read-out: MIC CAZ
[2] = tested on: K. pneumoniae BAA-1898 (TEM-1, SHV-11, SHV-12, KPC-2); assay: microbe, parasite or virus in culture; assay type: cell-based; conditions: for MIC: Klebsiella pneumoniae; for MIC of CAZ in combination with compound at 4 μg/mL: strain BAA-1898, compound fixed at 4 μg/mL
[3] = tested on: P. aeruginosa CIP107051 (TEM-24); assay: MIC broth microdilution, alone and synergy with ceftazidime; conditions: for MIC: Pseudomonas aeruginosa; for MIC of CAZ in combination with compound at 4 μg/mL: strain CIP107051, compound fixed at 4 μg/mL
[4] = tested on: K. pneumoniae UFR77 (CMY-2); assay: as above; conditions: Klebsiella pneumoniae, read-out: MIC CAZ
[5] = tested on: E. cloacae UFR70 (TEM-1, CTX-M-15, CMY-2, OXA-1, Porin loss); assay: as above; conditions: Enterobacter cloacae, read-out: MIC CAZ
[6] = tested on: K. pneumoniae UFR24 (TEM-1, SHV-2, SHV-11, OXA-1, OXA-48, OXA-47); assay: as above; conditions: Klebsiella pneumoniae, read-out: MIC CAZ
[7] = tested on: P. aeruginosa UFR92 (derepressed AmpC, OprD−); assay: as above; conditions: Pseudomonas aeruginosa, read-out: MIC CAZ
[8] = tested on: E. coli 131119 (TEM-1, OXA-48); assay: as above; conditions: Escherichia coli
[9] = tested on: K. pneumoniae UFR68 (TEM-1, SHV-11, CTX-M-15, KPC-3); assay: as above; conditions: Klebsiella pneumoniae, read-out: MIC CAZ
[10] = tested on: E. cloacae 260508 (TEM-1, CTX-M-15); assay: as above; conditions: Enterobacter cloacae, read-out: MIC CAZ
[11] = tested on: K. pneumoniae 6299 (TEM-1, SHV-11, OXA-163); assay: as above; conditions: for MIC: Klebsiella pneumoniae
E. coli RGN238 (OXA-1) = assay: as above; conditions: Escherichia coli
[12] = tested on: P. aeruginosa UFR90 (derepressed AmpC, OprD−); assay: as above; conditions: Pseudomonas aeruginosa, read-out: MIC CAZ
E. cloacae P99 (AmpC) = assay: as above; conditions: for MIC: Enterobacter cloacae; for MIC of CAZ in combination with compound at 4 μg/mL: strain P99, compound fixed at 4 μg/mL
[13] = tested on: P. aeruginosa UFR35 (OXA-23); assay: as above; conditions: Pseudomonas aeruginosa, read-out: MIC CAZ
[14] = tested on: E. coli UFR61O (TEM-1, KPC-2); assay: as above; conditions: Escherichia coli, read-out: MIC CAZ
[15] = tested on: C. murliniae 210102 (VIM-4); assay: as above; conditions: read-out: MIC CAZ
[16] = tested on: E. cloacae UFR38 (CTX-M-15, NDM-1); assay: as above; conditions: Enterobacter cloacae, read-out: MIC CAZ
[17] = tested on: K. pneumoniae 160143 (TEM-1, SHV-1, CTX-M-15, KPC-2, OXA-1); assay: as above; conditions: Klebsiella pneumoniae, read-out: MIC CAZ
[18] = tested on: E. coli UFR18 (CTX-M-15, OXA-204); assay: as above; conditions: Escherichia coli, read-out: MIC CAZ
[19] = tested on: K. oxytoca UFR21 (TEM-1, CTX-M-15, OXA-48); assay: as above; conditions: Klebsiella oxytoca, read-out: MIC CAZ
[20] = tested on: E. coli UFR74 (SHV-1, DHA-1); assay: as above; conditions: Escherichia coli, read-out: MIC CAZ
[21] = tested on: E. coli UFR52 (TEM-1, SHV-12, IMP-8); assay: as above; conditions: Escherichia coli, read-out: MIC CAZ
[22] = tested on: E. coli 190317 (TEM-1, SHV-12, CTX-M-15, OXA-1); assay: as above; conditions: for MIC: Escherichia coli; for MIC of CAZ in combination with compound at 4 μg/mL: strain 190317, compound fixed at 4 μg/mL
[23] = tested on: E. coli UFR32 (TEM-1, VEB-1, OXA-10); assay: as above; conditions: Escherichia coli, read-out: MIC CAZ
OXA-1 = molecular target: T1, OXA-1 (Escherichia coli, UniProt P13661); assay: β-lactamase inhibitory activity, nitrocefin hydrolysis; assay type: biochemical
T1 construct: made in house; host or cells: E. coli
Method: (§1) Enzyme activity was monitored by spectrophotometric measurement of nitrocefin (NCF-TOKU-E, N005) hydrolysis at 485 nm, at room temperature and in assay buffer A: 100 mM Phosphate pH7, 2% glycerol and 0.1 mg/mL Bovine serum albumin (Sigma, B4287). […] To a transparent polystyrene plate (Corning, 3628) were added in each well 5 μL DMSO or inhibitor dilutions in DMSO and 80 μL enzyme in buffer A. Plates were immediately read at 485 nm in a microplate spectrophotometer (BioTek, PowerWave HT) to enable background subtraction. After 30 min of pre-incubation at room temperature, 15 μL of NCF (200 μM final) were finally added in each well. Final enzyme concentrations were 0.1 nM (TEM-1), 0.075 nM (SHV-1), 0.4 nM (CTX-M-15), 1 nM (KPC-2), 0.2 nM (P99 AmpC), 0.2 nM (CMY-37), 0.4 nM (AmpC P. aeruginosa), 0.2 nM (OXA-1), 1.2 nM (OXA-11), 0.4 nM (OXA-15) and 0.3 nM (OXA-48). After 20 min incubation at room temperature, plates were once again read at 485 nm. Enzyme activity was obtained by subtracting the final signal by the background, and was converted to enzyme inhibition using non inhibited wells. IC50 curves were fitted to a classical Langmuir equilibrium model with Hill slope using XLFIT (IDBS).

OXA-48 = molecular target: T2, OXA-48 (Klebsiella pneumoniae, UniProt Q6XEC0); assay: as above; assay type: biochemical
T2 construct: made in house; host or cells: E. coli
Method: as §1

TEM-1 = molecular target: T3, TEM-1 (Escherichia coli, UniProt P62593); assay: as above; assay type: biochemical; conditions: class (A); 30 min pre-incubation; nitrocefin 200 μM
T3 construct: made in house; host or cells: E. coli
Method: as §1

[24] = tested on: P. aeruginosa CIP105250 (OXA-15); assay: MIC broth microdilution, compounds alone; conditions: Pseudomonas aeruginosa, CIP105250, read-out: MIC compounds of the invention alone
CTX-M-15 = molecular target: T4, CTX-M-15 (Escherichia coli, UniProt Q9EXV5); assay: β-lactamase inhibitory activity, nitrocefin hydrolysis; assay type: biochemical
T4 construct: made in house; host or cells: E. coli
Method: as §1

OXA-11 = molecular target: T5, OXA-11 (Pseudomonas aeruginosa, UniProt Q06778); assay: as above; assay type: biochemical
T5 construct: made in house; host or cells: E. coli
Method: as §1

OXA-15 = molecular target: T6, OXA-15 (Pseudomonas aeruginosa, UniProt Q51574); assay: as above; assay type: biochemical
T6 construct: made in house; host or cells: E. coli
Method: as §1

KPC-2 = molecular target: T7, KPC-2 (Klebsiella pneumoniae, UniProt Q9F663); assay: as above; assay type: biochemical
T7 construct: made in house; host or cells: E. coli
Method: as §1

AmpC P. aeruginosa = AmpC P. aeruginosa (Pseudomonas aeruginosa, UniProt P24735); assay: biochemical
Method: Enzyme activity was monitored by spectrophotometric measurement of nitrocefin (NCF-TOKU-E, N005) hydrolysis at 485 nm, at room temperature and in assay buffer A: 100 mM Phosphate pH7, 2% glycerol and 0.1 mg/mL Bovine serum albumin (Sigma, B4287). Enzymes were cloned in E. coli expression vector, expressed and purified in house using classical procedures. To a transparent polystyrene plate (Corning, 3628) were added in each well 5 μL DMSO or inhibitor dilutions in DMSO and 80 μL enzyme in buffer A. Plates were immediately read at 485 nm in a microplate spectrophotometer (BioTek, PowerWave HT) to enable background subtraction. After 30 min of pre-incubation at room temperature, 15 μL of NCF (200 μM final) were finally added in each well. Final enzyme concentrations were 0.1 nM (TEM-1), 0.075 nM (SHV-1), 0.4 nM (CTX-M-15), 1 nM (KPC-2), 0.2 nM (P99 AmpC), 0.2 nM (CMY-37), 0.4 nM (AmpC P. aeruginosa), 0.2 nM (OXA-1), 1.2 nM (OXA-11), 0.4 nM (OXA-15) and 0.3 nM (OXA-48). After 20 min incubation at room temperature, plates were once again read at 485 nm. Enzyme activity was obtained by subtracting the final signal by the background, and was converted to enzyme inhibition using non inhibited wells. IC50 curves were fitted to a classical Langmuir equilibrium model with Hill slope using XLFIT (IDBS).

P99 AmpC = molecular target: T8, P99 AmpC (Enterobacter cloacae, UniProt P05364); assay: β-lactamase inhibitory activity, nitrocefin hydrolysis; assay type: biochemical; conditions: class (C); 30 min pre-incubation; nitrocefin 200 μM
T8 construct: made in house; host or cells: E. coli
Method: as §1

SHV-1 = molecular target: T9, SHV-1 (Klebsiella pneumoniae, UniProt P0AD64); assay: as above; assay type: biochemical
T9 construct: made in house; host or cells: E. coli
Method: as §1

[25] = BAA1898, read-out: MIC compounds of the invention alone
[26] = CIP107051, read-out: MIC compounds of the invention alone
[27] = read-out: MIC compounds of the invention alone

T8 sequence (P05364 21-381): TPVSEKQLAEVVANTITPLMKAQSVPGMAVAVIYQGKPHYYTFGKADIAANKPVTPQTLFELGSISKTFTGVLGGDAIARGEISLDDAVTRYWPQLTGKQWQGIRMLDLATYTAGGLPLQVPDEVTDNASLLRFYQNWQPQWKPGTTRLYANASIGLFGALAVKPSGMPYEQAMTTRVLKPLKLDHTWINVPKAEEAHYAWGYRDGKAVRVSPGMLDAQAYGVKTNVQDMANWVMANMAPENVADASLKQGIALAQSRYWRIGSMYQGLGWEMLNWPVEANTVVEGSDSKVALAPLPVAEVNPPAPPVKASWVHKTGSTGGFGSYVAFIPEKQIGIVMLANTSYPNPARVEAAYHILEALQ
T3 sequence (P62593 24-286 limits assumed): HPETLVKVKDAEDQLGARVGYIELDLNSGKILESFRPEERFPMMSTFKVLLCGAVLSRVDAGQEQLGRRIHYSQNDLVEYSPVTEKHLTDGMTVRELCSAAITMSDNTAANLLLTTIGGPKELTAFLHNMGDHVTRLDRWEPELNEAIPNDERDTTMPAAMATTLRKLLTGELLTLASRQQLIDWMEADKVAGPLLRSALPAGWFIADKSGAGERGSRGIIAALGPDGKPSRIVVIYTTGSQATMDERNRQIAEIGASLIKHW
T2 sequence (Q6XEC0 23-265 limits assumed): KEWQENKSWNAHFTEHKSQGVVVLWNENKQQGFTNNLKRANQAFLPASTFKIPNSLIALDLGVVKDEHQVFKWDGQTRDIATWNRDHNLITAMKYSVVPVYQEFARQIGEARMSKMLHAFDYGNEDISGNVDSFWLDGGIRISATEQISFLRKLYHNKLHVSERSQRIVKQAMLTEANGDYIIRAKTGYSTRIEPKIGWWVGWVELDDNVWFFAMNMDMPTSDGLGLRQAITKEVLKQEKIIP
Sequence of AmpC P. aeruginosa (P24735 27-397): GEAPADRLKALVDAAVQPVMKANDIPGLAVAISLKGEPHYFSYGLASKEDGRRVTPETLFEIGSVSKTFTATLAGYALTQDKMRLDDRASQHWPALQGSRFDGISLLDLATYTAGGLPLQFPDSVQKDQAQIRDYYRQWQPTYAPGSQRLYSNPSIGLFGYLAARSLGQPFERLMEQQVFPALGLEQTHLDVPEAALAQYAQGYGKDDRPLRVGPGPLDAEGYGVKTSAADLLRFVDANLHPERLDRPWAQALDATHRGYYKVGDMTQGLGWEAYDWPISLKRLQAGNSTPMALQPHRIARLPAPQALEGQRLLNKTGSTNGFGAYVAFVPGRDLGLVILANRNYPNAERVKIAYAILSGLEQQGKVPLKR
T9 sequence (P0AD64 22-286): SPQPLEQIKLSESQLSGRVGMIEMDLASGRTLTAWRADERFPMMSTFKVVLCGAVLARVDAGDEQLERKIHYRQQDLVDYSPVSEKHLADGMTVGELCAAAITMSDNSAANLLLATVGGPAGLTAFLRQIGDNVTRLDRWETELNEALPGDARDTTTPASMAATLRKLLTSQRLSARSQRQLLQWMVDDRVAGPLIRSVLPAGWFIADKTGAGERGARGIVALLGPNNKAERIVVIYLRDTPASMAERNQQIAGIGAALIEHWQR
T7 sequence (Q9F663 25-293 limits assumed): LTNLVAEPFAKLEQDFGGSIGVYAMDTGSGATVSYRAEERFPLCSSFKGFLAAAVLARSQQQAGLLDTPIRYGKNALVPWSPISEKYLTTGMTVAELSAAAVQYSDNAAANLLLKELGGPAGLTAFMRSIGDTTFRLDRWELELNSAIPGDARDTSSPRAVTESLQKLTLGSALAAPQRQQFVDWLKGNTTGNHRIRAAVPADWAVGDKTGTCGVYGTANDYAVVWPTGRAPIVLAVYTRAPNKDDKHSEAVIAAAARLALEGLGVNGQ
T1 sequence (P13661 26-276): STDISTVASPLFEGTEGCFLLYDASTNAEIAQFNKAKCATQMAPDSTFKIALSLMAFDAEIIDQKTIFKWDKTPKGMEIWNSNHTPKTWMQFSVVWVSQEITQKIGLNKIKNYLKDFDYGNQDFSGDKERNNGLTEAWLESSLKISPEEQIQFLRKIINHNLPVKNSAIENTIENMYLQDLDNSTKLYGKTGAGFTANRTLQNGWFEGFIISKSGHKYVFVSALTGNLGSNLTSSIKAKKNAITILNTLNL
T6 sequence (Q51574 22-275): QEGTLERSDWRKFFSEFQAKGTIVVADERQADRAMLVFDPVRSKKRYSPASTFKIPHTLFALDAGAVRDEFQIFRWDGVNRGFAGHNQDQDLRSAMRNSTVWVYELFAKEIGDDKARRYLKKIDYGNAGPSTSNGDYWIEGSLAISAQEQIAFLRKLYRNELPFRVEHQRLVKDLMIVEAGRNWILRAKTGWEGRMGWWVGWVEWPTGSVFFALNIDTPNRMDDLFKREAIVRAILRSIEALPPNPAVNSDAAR
T5 sequence (Q06778 21-266): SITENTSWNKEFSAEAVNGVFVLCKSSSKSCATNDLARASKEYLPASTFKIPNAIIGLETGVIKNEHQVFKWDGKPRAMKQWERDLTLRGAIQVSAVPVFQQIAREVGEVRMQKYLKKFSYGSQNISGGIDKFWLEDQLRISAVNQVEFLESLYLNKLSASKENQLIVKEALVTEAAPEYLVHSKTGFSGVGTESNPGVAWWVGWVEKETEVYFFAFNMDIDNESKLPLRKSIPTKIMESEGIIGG
T4 sequence (Q9EXV5 entry or part of it): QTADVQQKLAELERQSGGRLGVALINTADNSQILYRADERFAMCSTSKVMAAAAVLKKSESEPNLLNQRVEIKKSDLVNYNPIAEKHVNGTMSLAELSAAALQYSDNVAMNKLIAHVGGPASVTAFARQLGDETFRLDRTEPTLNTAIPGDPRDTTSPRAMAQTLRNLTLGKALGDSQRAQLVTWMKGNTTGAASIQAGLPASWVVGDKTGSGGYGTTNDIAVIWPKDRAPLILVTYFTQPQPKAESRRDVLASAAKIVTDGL

SMILES: CC(C)(O/N=C(\C(=O)N[C@@H]1C(=O)N2C(C(=O)[O-])=C(C[n+]3ccccc3)CS[C@H]12)c1csc(N)n1)C(=O)O [CAZ, ceftazidime, reference compound]
- MIC [1]: 128 µg/mL
- MIC ([2]; BAA1898, read-out: MIC CAZ): 256 µg/mL (≈ 468 µM)
- MIC ([3]; CIP107051, read-out: MIC CAZ): 256 µg/mL
- MIC [4]: 64 µg/mL
- MIC [5]: > 128 µg/mL
- MIC [6]: > 128 µg/mL
- MIC [7]: 32 µg/mL
- MIC ([8]; read-out: MIC CAZ): 0.5 µg/mL
- MIC [9]: > 128 µg/mL
- MIC [10]: 128 µg/mL
- MIC ([11]; read-out: MIC CAZ): 256 µg/mL
- MIC (E. coli RGN238 (OXA-1); read-out: MIC CAZ): 0.5 µg/mL
- MIC [12]: 64 µg/mL
- MIC (E. cloacae P99 (AmpC); read-out: MIC CAZ): 128 µg/mL
- MIC [13]: 2 µg/mL
- MIC [14]: 128 µg/mL
- MIC [15]: > 128 µg/mL
- MIC [16]: > 128 µg/mL
- MIC [17]: 128 µg/mL
- MIC [18]: > 128 µg/mL
- MIC [19]: 128 µg/mL
- MIC [20]: 64 µg/mL
- MIC [21]: > 128 µg/mL
- MIC ([22]; read-out: MIC CAZ): 128 µg/mL
- MIC [23]: > 128 µg/mL

SMILES: CC(C)(C)OC(=O)NCCn1c2c(sc1=O)C1CN(C2)C(=O)N1OS(=O)(=O)[O-].[Na+] (stereo not drawn) [Example 3, Sodium [5-(2-(tert-butoxycarbonylamino)ethyl)-4,9-dioxo-3-thia-5,8,10-triaza-tricyclo[6.2.1.0^2.6]undec-2(6)-en-10-yl] sulfate]
- MIC [2, 25]: > 32 µg/mL
- MIC of CAZ in combination with compound at 4 μg/mL [2]: >128 µg/mL
- IC50 (OXA-1): 130 nM
- MIC [3, 26]: > 32 µg/mL
- MIC of CAZ in combination with compound at 4 μg/mL [3]: 64 µg/mL
- MIC [8, 27]: > 32 µg/mL
- IC50 (OXA-48): 1.7 nM
- IC50 (TEM-1): 5.8 nM
- MIC [24]: > 32 µg/mL
- IC50 (CTX-M-15): 0.49 nM
- MIC [11, 27]: > 32 µg/mL
- IC50 (OXA-11): 16 nM
- MIC (E. coli RGN238 (OXA-1); [27]): > 32 µg/mL
- MIC (E. cloacae P99 (AmpC); [27]): > 32 µg/mL
- MIC of CAZ in combination with compound at 4 μg/mL (E. cloacae P99 (AmpC)): 128 µg/mL
- IC50 (OXA-15): 97 nM
- IC50 (KPC-2): 3.4 nM
- IC50 (AmpC P. aeruginosa): 200 nM
- MIC [22, 27]: > 32 µg/mL
- MIC of CAZ in combination with compound at 4 μg/mL [22]: 32 µg/mL
- IC50 (P99 AmpC): 5.9 nM
- IC50 (SHV-1): 20 nM

SMILES: N=C(N)NCCn1c2c(sc1=O)C1CN(C2)C(=O)N1OS(=O)(=O)[O-].[Na+] (stereo not drawn) [Example 6, Sodium and 2,2,2-trifluoroacetate [5-(2-quanidiniumethyl)-4,9-dioxo-3-thia-5,8,10-triaza-tricyclo[6.2.1.0^2.6]undec-2(6)-en-10-yl] sulfate]
- MIC [2, 25]: 16 µg/mL
- MIC of CAZ in combination with compound at 4 μg/mL [2]: ≤0.125 µg/mL
- IC50 (OXA-1): 1700 nM
- MIC [3, 26]: 8 µg/mL
- MIC of CAZ in combination with compound at 4 μg/mL [3]: 8 µg/mL
- IC50 (OXA-48): 1.6 nM
- IC50 (TEM-1): 7 nM
- MIC [24]: 8 µg/mL
- IC50 (CTX-M-15): 5.4 nM
- MIC [11, 27]: > 32 µg/mL
- MIC of CAZ in combination with compound at 4 μg/mL ([11]; strain 6299, compound fixed at 4 μg/mL): ≤0.125 µg/mL
- IC50 (OXA-11): 130 nM
- MIC (E. coli RGN238 (OXA-1); [27]): 4 µg/mL
- MIC (E. cloacae P99 (AmpC); [27]): 1 µg/mL
- MIC of CAZ in combination with compound at 4 μg/mL (E. cloacae P99 (AmpC)): <0.25 µg/mL
- IC50 (OXA-15): 120 nM
- IC50 (KPC-2): 5.7 nM
- IC50 (AmpC P. aeruginosa): 1500 nM
- MIC [22, 27]: 1 µg/mL
- MIC of CAZ in combination with compound at 4 μg/mL [22]: <0.25 µg/mL
- IC50 (P99 AmpC): 380 nM
- IC50 (SHV-1): 12 nM
